Like-named read-outs stand apart in the source and are kept apart here.
How the values were obtained:
HIV-1 (wildtype IIIB) = assay: microbe, parasite or virus in culture; assay type: cell-based; conditions: dose achieving 50% protection of HIV-1 (IIIB) infected MT-4 cells, MTT, OD 540 nm
Experimental: (§1) A rapid, sensitive and automated assay procedure was used for the in vitro evaluation of anti-HIV agents. An HIV-1 (wildtype IIIB) transformed T4-cell line, MT-4, which was previously shown (Koyanagi et al., Int. J Cancer, 36, 445-451, 1985) to be highly susceptible to and permissive for HIV infection, served as the target cell line. Inhibition of the HIV-induced cytopathic effect was used as the end point. […] The percent protection achieved by the compound in HIV-infected cells was calculated by the following formula: [formula]
(§2) whereby (ODT)HIV is the optical density measured with a given concentration of the test compound in HIV-infected cells; (ODC)HIV is the optical density measured for the control untreated HIV-infected cells; (ODC)MOCK is the optical density measured for the control untreated mock-infected cells; all optical density values were determined at 540 nm. […] The ratio of CC50 to IC50 was defined as the selectivity index (SI).

MT-4 = assay: Cytotoxicity in mock-infected MT-4 cells (MTT)
Experimental: as §1, §2

[1] = Cytotoxicity in mock-infected MT-4 cells (MTT); conditions: human, mock-infected MT-4 cells
Experimental: as §1, §2

[2] = Human immunodeficiency virus 1, MT4
[3] = concentration reducing absorbance of mock-infected MT-4 control by 50%, MTT

N#Cc1ccc(Nc2nc(N)nc(Oc3c(Cl)cccc3Cl)n2)cc1 [Compound 1]
IC50 (HIV-1 (wildtype IIIB)): 3 nM | CC50 (MT-4): > 20 µM

Cc1ccc(C)c(Oc2nc(N)nc(Nc3ccc(C#N)cc3)n2)c1 [Compound 2, 4-[[4-amino-6-(2,5-dimethylphenoxy)-1,3,5-triazin-2-yl]amino]benzonitrile]
IC50 (HIV-1 (wildtype IIIB); [2]): 3 nM | CC50 [1]: 34.9 µM

N#Cc1ccc(Nc2nc(NO)nc(Nc3c(Cl)cccc3Cl)n2)cc1 [Compound 4, 4-[[[6-(2,6-dichlorophenylamino)-4-(hydroxylamino)]-1,3,5-triazin-2-yl]amino]-benzonitrile]
IC50 (HIV-1 (wildtype IIIB)): 2 nM | CC50 (MT-4): 8 µM

Cc1cccc(C)c1Nc1nc(NO)nc(Nc2ccc(C#N)cc2)n1 [Compound 5]
IC50 (HIV-1 (wildtype IIIB)): 2 nM | CC50 (MT-4): 7.8 µM

Cc1cccc(Cl)c1Nc1nc(N)nc(Nc2ccc(C#N)cc2)n1 [Compound 7, 4-[[4-amino-6-[(2-chloro-6-methylphenyl)amino]-1,3,5-triazin-2-yl]amino]benzonitrile]
IC50 (HIV-1 (wildtype IIIB); [2]): 5 nM | CC50 [1]: 49.9 µM

Cc1cccc(C(C)C)c1Nc1nc(N)nc(Nc2ccc(C#N)cc2)n1 [Compound 8]
IC50 (HIV-1 (wildtype IIIB)): 165 nM | CC50 (MT-4): 9.3 µM

N#Cc1ccc(Nc2nc(N)nc(Nc3c(Cl)cccc3Cl)n2)cc1 [Compound 10]
IC50 (HIV-1 (wildtype IIIB)): 3 nM | CC50 (MT-4): 6.1 µM

Cc1cc(C)c(Nc2nc(NO)nc(Nc3ccc(C#N)cc3)n2)c(C)c1 [Compound 11, 4-[[4-(hydroxyamino)-6-[(2,4,6-trimethylphenyl)amino]-1,3,5-triazin-2-yl]amino]-benzonitrile]
IC50 (HIV-1 (wildtype IIIB); [2]): 1 nM | CC50 [1]: 6.3 µM

CCc1cccc(CC)c1Nc1nc(N)nc(Nc2ccc(C#N)cc2)n1 [Compound 12]
IC50 (HIV-1 (wildtype IIIB)): 21 nM | CC50 (MT-4): 30 µM

CC(=O)c1ccc(C)cc1Nc1nc(N)nc(Nc2ccc(C#N)cc2)n1 [Compound 13]
IC50 (HIV-1 (wildtype IIIB)): 259 nM | CC50 (MT-4): > 100 µM

Cc1cc(C)c(Nc2nc(N)nc(Nc3ccc(C#N)cc3)n2)c(C)c1Br [Compound 15]
IC50 (HIV-1 (wildtype IIIB)): 3 nM | CC50 (MT-4): 1.7 µM

CCc1cccc(C)c1Nc1nc(N)nc(Nc2ccc(C#N)cc2)n1 [Compound 16, 4-[[4-amino-6-[(2-ethyl-6-methylphenyl)amino]-1,3,5-triazin-2-yl]amino]benzonitrile]
IC50 (HIV-1 (wildtype IIIB); [2]): 6 nM | CC50 [1]: 8.1 µM

N#Cc1ccc(Nc2nc(N)nc(Nc3c(F)cc(F)cc3Br)n2)cc1 [Compound 17]
IC50 (HIV-1 (wildtype IIIB)): 3 nM | CC50 (MT-4): 53.8 µM

N#Cc1ccc(Nc2nc(N)nc(Nc3c(Cl)cc(Cl)cc3Cl)n2)cc1 [Compound 18]
IC50 (HIV-1 (wildtype IIIB)): 8 nM | CC50 (MT-4): 45.6 µM

N#Cc1ccc(Nc2nc(N)nc(Sc3c(Cl)cccc3Cl)n2)cc1 [Compound 19, 4-[[4-amino-6-[(2,6-dichlorophenyl)thio]-1,3,5-triazin-2-yl]amino]benzonitrile]
IC50 (HIV-1 (wildtype IIIB); [2]): 4 nM | CC50 [1]: 40.6 µM

N#Cc1ccc(Nc2nc(NO)nc(Sc3c(Cl)cccc3Cl)n2)cc1 [Compound 20]
IC50 (HIV-1 (wildtype IIIB)): 3 nM | CC50 (MT-4): 11.7 µM

N#Cc1ccc(Nc2nc(N)nc(NNc3c(Cl)cc(Cl)cc3Cl)n2)cc1 [Compound 21]
IC50 (HIV-1 (wildtype IIIB)): 1 nM | CC50 (MT-4): 27.8 µM

N#Cc1ccc(Nc2nc(N)nc(NNc3c(Cl)cccc3Cl)n2)cc1 [Compound 22]
IC50 (HIV-1 (wildtype IIIB)): 3 nM | CC50 (MT-4): > 100 µM

N#Cc1ccc(Nc2nc(NO)nc(Nc3c(Cl)cc(Cl)cc3Cl)n2)cc1 [Compound 23, 4-[[4-(hydroxyamino)-6-[(2,4,6-trichlorophenyl)amino]-1,3,5-triazin-2-yl]amino]-benzonitrile]
IC50 (HIV-1 (wildtype IIIB); [2]): 1 nM | CC50 [1]: 7.6 µM

Cc1ccc(Cl)c(C)c1Nc1nc(N)nc(Nc2ccc(C#N)cc2)n1 [Compound 28]
IC50 (HIV-1 (wildtype IIIB)): 5 nM | CC50 (MT-4): 42.8 µM

N#Cc1ccc(Nc2nc(N)nc(Oc3c(Cl)cc(Cl)cc3Cl)n2)cc1 [Compound 30]
IC50 (HIV-1 (wildtype IIIB)): 2 nM | CC50 (MT-4): 63.5 µM

Cc1ccc(Cl)c(C)c1Nc1nc(NO)nc(Nc2ccc(C#N)cc2)n1 [Compound 31]
IC50 (HIV-1 (wildtype IIIB)): 5 nM | CC50 (MT-4): 9.9 µM

Cc1cc(Cl)cc(Cl)c1Oc1nc(N)nc(Nc2ccc(C#N)cc2)n1 [Compound 34]
IC50 (HIV-1 (wildtype IIIB)): 1 nM | CC50 (MT-4): 4.8 µM

N#Cc1ccc(Nc2nc(N)nc(Oc3ccc(Cl)cc3Cl)n2)cc1 [Compound 38]
IC50 (HIV-1 (wildtype IIIB)): 7 nM | CC50 (MT-4): > 100 µM

CC(=O)c1cc(Cl)cc(Cl)c1Oc1nc(N)nc(Nc2ccc(C#N)cc2)n1 [Compound 39]
IC50 (HIV-1 (wildtype IIIB)): > 10000 nM | CC50 (MT-4): < 10 µM

N#Cc1ccc(Nc2nc(N)nc(Oc3c(Cl)c(Cl)c(Cl)c(Cl)c3Cl)n2)cc1 [Compound 42]
IC50 (HIV-1 (wildtype IIIB)): 33 nM | CC50 (MT-4): > 10 µM

N#Cc1ccc(Nc2nc(N)nc(Oc3c(Cl)ccc(Cl)c3Cl)n2)cc1 [Compound 43]
IC50 (HIV-1 (wildtype IIIB)): 9 nM | CC50 (MT-4): 43.9 µM

N#Cc1ccc(Nc2nc(N)nc(Oc3c(F)cc(F)cc3F)n2)cc1 [Compound 44]
IC50 (HIV-1 (wildtype IIIB)): 5 nM | CC50 (MT-4): > 100 µM

N#Cc1ccc(Nc2nc(N)nc(Oc3c(Cl)cc(F)cc3Cl)n2)cc1 [Compound 45]
IC50 (HIV-1 (wildtype IIIB)): 7 nM | CC50 (MT-4): 52.9 µM

COc1cccc(OC)c1Oc1nc(N)nc(Nc2ccc(C#N)cc2)n1 [Compound 46]
IC50 (HIV-1 (wildtype IIIB)): 31 nM | CC50 (MT-4): > 100 µM

COc1cc(C#N)ccc1Oc1nc(N)nc(Nc2ccc(C#N)cc2)n1 [Compound 47]
IC50 (HIV-1 (wildtype IIIB)): 75 nM | CC50 (MT-4): > 100 µM

Cc1c(Cl)c(C)c(Br)c(Oc2nc(N)nc(Nc3ccc(C#N)cc3)n2)c1Br [Compound 48]
IC50 (HIV-1 (wildtype IIIB)): 19 nM | CC50 (MT-4): 8.7 µM

CC(=O)c1cc(F)cc(F)c1Oc1nc(N)nc(Nc2ccc(C#N)cc2)n1 [Compound 49]
IC50 (HIV-1 (wildtype IIIB)): 76 nM | CC50 (MT-4): > 99.9 µM

Cc1c(Br)c(C)c(Br)c(Oc2nc(N)nc(Nc3ccc(C#N)cc3)n2)c1Br [Compound 50]
IC50 (HIV-1 (wildtype IIIB)): 59 nM | CC50 (MT-4): 8.1 µM

Cc1cc(Cl)c(C)c(C)c1Oc1nc(N)nc(Nc2ccc(C#N)cc2)n1 [Compound 52]
IC50 (HIV-1 (wildtype IIIB)): 3 nM | CC50 (MT-4): 1.9 µM

Cc1c(C)c(Oc2nc(N)nc(Nc3ccc(C#N)cc3)n2)c(Cl)c(C)c1Cl [Compound 53]
IC50 (HIV-1 (wildtype IIIB)): 17 nM | CC50 (MT-4): 2.5 µM

N#Cc1ccc(Nc2nc(N)nc(Sc3ccc(F)cc3Cl)n2)cc1 [Compound 55]
IC50 (HIV-1 (wildtype IIIB)): 4 nM | CC50 (MT-4): > 99.9 µM

N#Cc1ccc(Nc2nc(N)nc(Sc3cc(Cl)c(Cl)cc3Cl)n2)cc1 [Compound 56]
IC50 (HIV-1 (wildtype IIIB)): 5 nM | CC50 (MT-4): 62.6 µM

N#Cc1ccc(Nc2nc(N)nc(Sc3ccc(F)cc3F)n2)cc1 [Compound 57]
IC50 (HIV-1 (wildtype IIIB)): 15 nM | CC50 (MT-4): > 100 µM

Cc1cc(C)c(Sc2nc(N)nc(Nc3ccc(C#N)cc3)n2)c(C)c1 [Compound 58]
IC50 (HIV-1 (wildtype IIIB)): 3 nM | CC50 (MT-4): 47.1 µM

Cc1ccc(Sc2nc(N)nc(Nc3ccc(C#N)cc3)n2)c(C)c1 [Compound 59]
IC50 (HIV-1 (wildtype IIIB)): 2 nM | CC50 (MT-4): 48.5 µM

Cc1cc(I)cc(C)c1Oc1nc(N)nc(Nc2ccc(C#N)cc2)n1 [Compound 60]
IC50 (HIV-1 (wildtype IIIB)): 3 nM | CC50 (MT-4): 45.5 µM

Cc1cc(C)c(Nc2nc(N)nc(Nc3ccc(C#N)cc3)n2)c(C)c1N [Compound 61]
IC50 (HIV-1 (wildtype IIIB)): 5 nM | CC50 (MT-4): 94.6 µM

Cc1ccc(Oc2nc(N)nc(Nc3ccc(C#N)cc3)n2)c(C)c1 [Compound 62]
IC50 (HIV-1 (wildtype IIIB)): 3 nM | CC50 (MT-4): 51.6 µM

CCc1cc(Br)cc(CC)c1Nc1nc(N)nc(Nc2ccc(C#N)cc2)n1 [Compound 64]
IC50 (HIV-1 (wildtype IIIB)): 14 nM | CC50 (MT-4): 46.5 µM

Cc1cc(Nc2nc(N)nc(Nc3ccc(C#N)cc3)n2)c(Cl)cc1F [Compound 66]
IC50 (HIV-1 (wildtype IIIB)): 96 nM | CC50 (MT-4): > 99.9 µM

N#Cc1ccc(Nc2nc(N)nc(Nc3c(F)c(F)c(F)c(F)c3F)n2)cc1 [Compound 67]
IC50 (HIV-1 (wildtype IIIB)): 111 nM | CC50 (MT-4): 45.6 µM

COc1cc(OC)c(Nc2nc(N)nc(Nc3ccc(C#N)cc3)n2)c(OC)c1 [Compound 68]
IC50 (HIV-1 (wildtype IIIB)): 15 nM | CC50 (MT-4): 63.9 µM

Cc1cc(C)c(N=Nc2nc(N)nc(Nc3ccc(C#N)cc3)n2)c(C)c1 [Compound 69, 4-[[4-amino-6-[(2,4,6-trimethylphenyl)azo]-1,3,5-triazin-2-yl]aamino]benzonitrile]
IC50 (HIV-1 (wildtype IIIB)): 65 nM | CC50 (MT-4; [3]): > 99.9 µM

N#Cc1ccc(Nc2nc(N)nc(Nc3c(Cl)cc(C(F)(F)F)cc3Cl)n2)cc1 [Compound 70]
IC50 (HIV-1 (wildtype IIIB)): 3 nM | CC50 (MT-4): 15.6 µM

N#Cc1ccc(Nc2nc(N)nc(Nc3c(Br)cc(Br)cc3Br)n2)cc1 [Compound 72]
IC50 (HIV-1 (wildtype IIIB)): 2 nM | CC50 (MT-4): 6.5 µM

Cc1cc(Br)c(Nc2nc(Nc3ccc(C#N)cc3)nc(Nc3ccc(C#N)cc3)n2)c(Br)c1 [Compound 74, N,-[6-[(2,6-dibromo-4-methylphenyl)amino]-1,3,5-triazine-2,4-diyl]bis[4-amino-benzonitrile]]
IC50 (HIV-1 (wildtype IIIB)): 190 nM | CC50 (MT-4): 7 µM

CC(C)c1cc(Br)c(Nc2nc(Nc3ccc(C#N)cc3)nc(Nc3ccc(C#N)cc3)n2)c(Br)c1 [Compound 75]
IC50 (HIV-1 (wildtype IIIB)): 378 nM | CC50 (MT-4): 37.8 µM

Cc1cc(N)cc(C)c1Oc1nc(N)nc(Nc2ccc(C#N)cc2)n1 [Compound 78]
IC50 (HIV-1 (wildtype IIIB)): 7830 nM | CC50 (MT-4): 47 µM

N#Cc1ccc(Nc2nc(N)nc(Oc3c(F)c(F)c(O)c(F)c3F)n2)cc1 [Compound 80]
IC50 (HIV-1 (wildtype IIIB)): 85500 nM | CC50 (MT-4; [3]): > 85.5 µM

Cc1c(Cl)cc(N)c(Oc2nc(N)nc(Nc3ccc(C#N)cc3)n2)c1Cl [Compound 81]
IC50 (HIV-1 (wildtype IIIB)): 2680 nM | CC50 (MT-4): > 99.1 µM

COC(=O)c1cc(OC)c(OC)c(OC)c1Nc1nc(N)nc(Nc2ccc(C#N)cc2)n1 [Compound 82]
IC50 (HIV-1 (wildtype IIIB)): 1490 nM | CC50 (MT-4): 99.6 µM

Source: patent US6774235B2, “Trisubstituted 1,3,5-triazine derivatives” (Janssen Pharmaceutica N.V., priority 1998, dated 2004)
